Results from ChEMBL document CHEMBL1151757, “Synthesis, radiosynthesis, and biological evaluation of fluorine-18-labeled 2beta-carbo(fluoroalkoxy)-3beta-(3'-((Z)-2-haloethenyl)phenyl)nortropanes: candidate radioligands for in vivo imaging of the serotonin transporter with positron emission tomography” (J Med Chem, 2008).

Experiments:
Thalamus [1] = assay: Drug uptake in anesthetized cynomolgus monkey brain thalamus after 105 mins postinjection; assay type: ADME, organism-based, Macaca fascicularis; design: unit not given here; conditions: in vivo, 1.75 h
[2] = Ratio of drug uptake in midbrain to cerebellum in anesthetized cynomolgus monkey after 125 mins postinjection; assay type: ADME, organism-based, Macaca fascicularis; conditions: in vivo
[3] = Ratio of drug uptake in thalamus to cerebellum in anesthetized cynomolgus monkey after 155 mins postinjection; assay type: ADME, organism-based, Macaca fascicularis; conditions: in vivo
[4] = Ratio of drug uptake in putamen to cerebellum in anesthetized cynomolgus monkey after 235 mins postinjection; assay type: ADME, organism-based, Macaca fascicularis; conditions: in vivo
Thalamus [5] = assay: Drug uptake in anesthetized cynomolgus monkey brain thalamus after 22.5 mins postinjection; assay type: ADME, organism-based, Macaca fascicularis; design: unit not given here; conditions: in vivo, 0.375 h
Caudate [6] = assay: Drug uptake in anesthetized cynomolgus monkey brain caudate after 95 mins postinjection; assay type: ADME, organism-based, Macaca fascicularis, Caudate nucleus; conditions: in vivo
Putamen [7] = assay: Drug uptake in anesthetized cynomolgus monkey brain putamen after 2.5 mins postinjection; assay type: ADME, organism-based, Macaca fascicularis; conditions: in vivo
Pons [8] = assay: Drug uptake in anesthetized cynomolgus monkey brain pons after 125 mins postinjection; assay type: ADME, organism-based, Macaca fascicularis; conditions: in vivo
[9] = Ratio of drug uptake in frontal lobe to cerebellum in anesthetized cynomolgus monkey after 135 mins postinjection; assay type: ADME, organism-based, Macaca fascicularis; conditions: in vivo, 2.25 h
Caudate [10] = assay: Drug uptake in anesthetized cynomolgus monkey brain caudate after 1.5 mins postinjection; assay type: ADME, organism-based, Macaca fascicularis, Caudate nucleus; conditions: in vivo, 0.025 h
[11] = Ratio of drug uptake in occipital lobe to cerebellum in anesthetized cynomolgus monkey after 4.5 mins postinjection; assay type: ADME, organism-based, Macaca fascicularis; conditions: in vivo, 0.075 h
Midbrain [12] = assay: Drug uptake in anesthetized cynomolgus monkey brain midbrain after 3.5 mins postinjection; assay type: ADME, organism-based, Macaca fascicularis; design: unit not given here; conditions: in vivo
[13] = Ratio of drug uptake in putamen to cerebellum in anesthetized cynomolgus monkey after 0.5 mins postinjection; assay type: ADME, organism-based, Macaca fascicularis; conditions: in vivo
[14] = Ratio of drug uptake in caudate to cerebellum in anesthetized cynomolgus monkey after 135 mins postinjection; assay type: ADME, organism-based, Macaca fascicularis; conditions: in vivo, 2.25 h
Caudate [15] = assay: Drug uptake in anesthetized cynomolgus monkey brain caudate after 6.5 mins postinjection; assay type: ADME, organism-based, Macaca fascicularis, Caudate nucleus; conditions: in vivo
Pons [16] = assay: Drug uptake in anesthetized cynomolgus monkey brain pons after 3.5 mins postinjection; assay type: ADME, organism-based, Macaca fascicularis; conditions: in vivo
[17] = Drug uptake in anesthetized cynomolgus monkey brain cerebellum after 115 mins postinjection; assay type: ADME, organism-based, Macaca fascicularis; conditions: in vivo
Thalamus [18] = assay: Drug uptake in anesthetized cynomolgus monkey brain thalamus after 185 mins postinjection; assay type: ADME, organism-based, Macaca fascicularis; conditions: in vivo
Pons [19] = assay: Drug uptake in anesthetized cynomolgus monkey brain pons after 6.5 mins postinjection; assay type: ADME, organism-based, Macaca fascicularis; conditions: in vivo
Medulla [20] = assay: Drug uptake in anesthetized cynomolgus monkey brain medulla after 27.5 mins postinjection; assay type: ADME, organism-based, Macaca fascicularis; conditions: in vivo
Putamen [21] = assay: Drug uptake in anesthetized cynomolgus monkey brain putamen after 145 mins postinjection; assay type: ADME, organism-based, Macaca fascicularis; conditions: in vivo
[22] = Drug uptake in anesthetized cynomolgus monkey brain frontal lobe after 22.5 mins postinjection; assay type: ADME, organism-based, Macaca fascicularis; conditions: in vivo, 0.375 h
Midbrain [23] = assay: Drug uptake in anesthetized cynomolgus monkey brain midbrain after 0.5 mins postinjection; assay type: ADME, organism-based, Macaca fascicularis; design: unit not given here; conditions: in vivo
Thalamus [24] = assay: Drug uptake in anesthetized cynomolgus monkey brain thalamus after 18.5 mins postinjection; assay type: ADME, organism-based, Macaca fascicularis; design: unit not given here; conditions: in vivo
Putamen [25] = assay: Drug uptake in anesthetized cynomolgus monkey brain putamen after 1.5 mins postinjection; assay type: ADME, organism-based, Macaca fascicularis; conditions: in vivo, 0.025 h
Midbrain [26] = assay: Drug uptake in anesthetized cynomolgus monkey brain midbrain after 22.5 mins postinjection; assay type: ADME, organism-based, Macaca fascicularis; design: unit not given here; conditions: in vivo, 0.375 h
Pons [27] = assay: Drug uptake in anesthetized cynomolgus monkey brain pons after 135 mins postinjection; assay type: ADME, organism-based, Macaca fascicularis; conditions: in vivo, 2.25 h
[28] = Drug uptake in anesthetized cynomolgus monkey brain occipital lobe after 235 mins postinjection; assay type: ADME, organism-based, Macaca fascicularis; conditions: in vivo
[29] = Ratio of drug uptake in caudate to cerebellum in anesthetized cynomolgus monkey after 225 mins postinjection; assay type: ADME, organism-based, Macaca fascicularis; conditions: in vivo, 3.75 h
[30] = Drug uptake in anesthetized cynomolgus monkey brain frontal lobe after 55 mins postinjection; assay type: ADME, organism-based, Macaca fascicularis; conditions: in vivo
Caudate [31] = assay: Drug uptake in anesthetized cynomolgus monkey brain caudate after 135 mins postinjection; assay type: ADME, organism-based, Macaca fascicularis, Caudate nucleus; conditions: in vivo, 2.25 h
[32] = Drug uptake in anesthetized cynomolgus monkey brain cerebellum after 195 mins postinjection; assay type: ADME, organism-based, Macaca fascicularis; conditions: in vivo, 3.25 h
[33] = Drug uptake in anesthetized cynomolgus monkey brain occipital lobe after 4.5 mins postinjection; assay type: ADME, organism-based, Macaca fascicularis; conditions: in vivo, 0.075 h
[34] = Ratio of drug uptake in occipital lobe to cerebellum in anesthetized cynomolgus monkey after 115 mins postinjection; assay type: ADME, organism-based, Macaca fascicularis; conditions: in vivo
Putamen [35] = assay: Drug uptake in anesthetized cynomolgus monkey brain putamen after 185 mins postinjection; assay type: ADME, organism-based, Macaca fascicularis; conditions: in vivo
Caudate [36] = assay: Drug uptake in anesthetized cynomolgus monkey brain caudate after 18.5 mins postinjection; assay type: ADME, organism-based, Macaca fascicularis, Caudate nucleus; conditions: in vivo
Medulla [37] = assay: Drug uptake in anesthetized cynomolgus monkey brain medulla after 145 mins postinjection; assay type: ADME, organism-based, Macaca fascicularis; conditions: in vivo
[38] = Drug uptake in anesthetized cynomolgus monkey brain frontal lobe after 65 mins postinjection; assay type: ADME, organism-based, Macaca fascicularis; conditions: in vivo
Putamen [39] = assay: Drug uptake in anesthetized cynomolgus monkey brain putamen after 65 mins postinjection; assay type: ADME, organism-based, Macaca fascicularis; design: unit not given here; conditions: in vivo
[40] = Drug uptake in anesthetized cynomolgus monkey brain cerebellum after 0.5 mins postinjection; assay type: ADME, organism-based, Macaca fascicularis; conditions: in vivo
[41] = Drug uptake in anesthetized cynomolgus monkey brain cerebellum after 175 mins postinjection; assay type: ADME, organism-based, Macaca fascicularis; conditions: in vivo
Caudate [42] = assay: Drug uptake in anesthetized cynomolgus monkey brain caudate after 105 mins postinjection; assay type: ADME, organism-based, Macaca fascicularis, Caudate nucleus; conditions: in vivo, 1.75 h
[43] = Drug uptake in anesthetized cynomolgus monkey brain occipital lobe after 15.5 mins postinjection; assay type: ADME, organism-based, Macaca fascicularis; conditions: in vivo
[44] = Ratio of drug uptake in medulla to cerebellum in anesthetized cynomolgus monkey after 195 mins postinjection; assay type: ADME, organism-based, Macaca fascicularis; conditions: in vivo, 3.25 h
[45] = Ratio of drug uptake in midbrain to cerebellum in anesthetized cynomolgus monkey after 27.5 mins postinjection; assay type: ADME, organism-based, Macaca fascicularis; conditions: in vivo
Midbrain [46] = assay: Drug uptake in anesthetized cynomolgus monkey brain midbrain after 185 mins postinjection; assay type: ADME, organism-based, Macaca fascicularis; conditions: in vivo
Caudate [47] = assay: Drug uptake in anesthetized cynomolgus monkey brain caudate after 125 mins postinjection; assay type: ADME, organism-based, Macaca fascicularis, Caudate nucleus; conditions: in vivo
[48] = Ratio of drug uptake in pons to cerebellum in anesthetized cynomolgus monkey after 18.5 mins postinjection; assay type: ADME, organism-based, Macaca fascicularis; conditions: in vivo
Putamen [49] = assay: Drug uptake in anesthetized cynomolgus monkey brain putamen after 175 mins postinjection; assay type: ADME, organism-based, Macaca fascicularis; conditions: in vivo
Midbrain [50] = assay: Drug uptake in anesthetized cynomolgus monkey brain midbrain after 95 mins postinjection; assay type: ADME, organism-based, Macaca fascicularis; design: unit not given here; conditions: in vivo
Thalamus [51] = assay: Drug uptake in anesthetized cynomolgus monkey brain thalamus after 35 mins postinjection; assay type: ADME, organism-based, Macaca fascicularis; design: unit not given here; conditions: in vivo
[52] = Ratio of drug uptake in midbrain to cerebellum in anesthetized cynomolgus monkey after 22.5 mins postinjection; assay type: ADME, organism-based, Macaca fascicularis; conditions: in vivo, 0.375 h
[53] = Ratio of drug uptake in occipital lobe to cerebellum in anesthetized cynomolgus monkey after 205 mins postinjection; assay type: ADME, organism-based, Macaca fascicularis; conditions: in vivo
Midbrain [54] = assay: Drug uptake in anesthetized cynomolgus monkey brain midbrain after 205 mins postinjection; assay type: ADME, organism-based, Macaca fascicularis; conditions: in vivo
Caudate [55] = assay: Drug uptake in anesthetized cynomolgus monkey brain caudate after 155 mins postinjection; assay type: ADME, organism-based, Macaca fascicularis, Caudate nucleus; conditions: in vivo
Pons [56] = assay: Drug uptake in anesthetized cynomolgus monkey brain pons after 235 mins postinjection; assay type: ADME, organism-based, Macaca fascicularis; conditions: in vivo
[57] = Drug uptake in anesthetized cynomolgus monkey brain frontal lobe after 105 mins postinjection; assay type: ADME, organism-based, Macaca fascicularis; conditions: in vivo, 1.75 h
Medulla [58] = assay: Drug uptake in anesthetized cynomolgus monkey brain medulla after 6.5 mins postinjection; assay type: ADME, organism-based, Macaca fascicularis; conditions: in vivo
Pons [59] = assay: Drug uptake in anesthetized cynomolgus monkey brain pons after 105 mins postinjection; assay type: ADME, organism-based, Macaca fascicularis; conditions: in vivo, 1.75 h
Midbrain [60] = assay: Drug uptake in anesthetized cynomolgus monkey brain midbrain after 15.5 mins postinjection; assay type: ADME, organism-based, Macaca fascicularis; design: unit not given here; conditions: in vivo
[61] = Ratio of drug uptake in thalamus to cerebellum in anesthetized cynomolgus monkey after 115 mins postinjection; assay type: ADME, organism-based, Macaca fascicularis; conditions: in vivo
Pons [62] = assay: Drug uptake in anesthetized cynomolgus monkey brain pons after 225 mins postinjection; assay type: ADME, organism-based, Macaca fascicularis; conditions: in vivo, 3.75 h
Putamen [63] = assay: Drug uptake in anesthetized cynomolgus monkey brain putamen after 225 mins postinjection; assay type: ADME, organism-based, Macaca fascicularis; conditions: in vivo, 3.75 h
[64] = Ratio of drug uptake in frontal lobe to cerebellum in anesthetized cynomolgus monkey after 205 mins postinjection; assay type: ADME, organism-based, Macaca fascicularis; conditions: in vivo
Medulla [65] = assay: Drug uptake in anesthetized cynomolgus monkey brain medulla after 175 mins postinjection; assay type: ADME, organism-based, Macaca fascicularis; conditions: in vivo
Pons [66] = assay: Drug uptake in anesthetized cynomolgus monkey brain pons after 75 mins postinjection; assay type: ADME, organism-based, Macaca fascicularis; conditions: in vivo, 1.25 h
[67] = Ratio of drug uptake in pons to cerebellum in anesthetized cynomolgus monkey after 225 mins postinjection; assay type: ADME, organism-based, Macaca fascicularis; conditions: in vivo, 3.75 h
Medulla [68] = assay: Drug uptake in anesthetized cynomolgus monkey brain medulla after 85 mins postinjection; assay type: ADME, organism-based, Macaca fascicularis; conditions: in vivo

Structure (SMILES): O=C(OCCC[18F])C1C2CCC(CC1c1cccc(/C=C\I)c1)N2 (stereo not drawn)
- Drug uptake (Thalamus [1]): 4.44
- Ratio [2]: 1.6
- Ratio [3]: 1.6
- Ratio [4]: 1.6
- Drug uptake (Thalamus [5]): 4.46
- Drug uptake (Caudate [6]): 3.82
- Drug uptake (Putamen [7]): 0.84
- Drug uptake (Pons [8]): 3.82
- Ratio [9]: 0.9
- Drug uptake (Caudate [10]): 0.16
- Ratio [11]: 0.8
- Drug uptake (Midbrain [12]): 1.74
- Ratio [13]: 1.5
- Ratio [14]: 1.3
- Drug uptake (Caudate [15]): 2.53
- Drug uptake (Pons [16]): 1.71
- Drug uptake [17]: 3.1
- Drug uptake (Thalamus [18]): 3.29
- Drug uptake (Pons [19]): 2.85
- Drug uptake (Medulla [20]): 5.08
- Drug uptake (Putamen [21]): 3.91
- Drug uptake [22]: 2.64
- Drug uptake (Midbrain [23]): 0.01
- Drug uptake (Thalamus [24]): 4.22
- Drug uptake (Putamen [25]): 0.27
- Drug uptake (Midbrain [26]): 4.55
- Drug uptake (Pons [27]): 4.08
- Drug uptake [28]: 1.99
- Ratio [29]: 1.3
- Drug uptake [30]: 2.82
- Drug uptake (Caudate [31]): 3.34
- Drug uptake [32]: 2.16
- Drug uptake [33]: 2.06
- Ratio [34]: 1
- Drug uptake (Putamen [35]): 3.51
- Drug uptake (Caudate [36]): 3.38
- Drug uptake (Medulla [37]): 4.24
- Drug uptake [38]: 2.77
- Drug uptake (Putamen [39]): 4.95
- Drug uptake [40]: 0.01
- Drug uptake [41]: 2.37
- Drug uptake (Caudate [42]): 3.7
- Drug uptake [43]: 3.53
- Ratio [44]: 1.7
- Ratio [45]: 1
- Drug uptake (Midbrain [46]): 4.05
- Drug uptake (Caudate [47]): 3.51
- Ratio [48]: 0.9
- Drug uptake (Putamen [49]): 3.61
- Drug uptake (Midbrain [50]): 4.77
- Drug uptake (Thalamus [51]): 4.81
- Ratio [52]: 1
- Ratio [53]: 1.2
- Drug uptake (Midbrain [54]): 3.86
- Drug uptake (Caudate [55]): 3.19
- Drug uptake (Pons [56]): 3.31
- Drug uptake [57]: 2.58
- Drug uptake (Medulla [58]): 3.75
- Drug uptake (Pons [59]): 4.01
- Drug uptake (Midbrain [60]): 4.45
- Ratio [61]: 1.4
- Drug uptake (Pons [62]): 3.11
- Drug uptake (Putamen [63]): 3.05
- Ratio [64]: 1
- Drug uptake (Medulla [65]): 4.08
- Drug uptake (Pons [66]): 4.34
- Ratio [67]: 1.7
- Drug uptake (Medulla [68]): 4.79
